# Ends that are not written are not given here.
# Legend:
# [1] = test system: participants with obesity and participants with T2DM; assay: CT-868-003 crossover study: safety; type: in vivo, human; conditions: in vivo
# Excerpt: Safety assessments of this study included treatment-emergent adverse events (TEAEs), serious adverse events (SAEs), adverse events of special interest (AESI), vital signs, 12-lead electrocardiogram (ECG), clinical lab evaluations, and physical exam.
# Safety assessments which occurred throughout the entire study, included monitoring of incidence and severity of AEs, treatment-emergent AEs (TEAEs) and AEs of special interest (AESIs) (e.g., GI events, hypoglycemia), clinical laboratory abnormalities (ECGs, chemistry, hematology, and urinalysis), and changes in vital sign measurements (BP, heart rate, respiratory rate, and aural temperature).
# AE terms recorded by the Investigator were coded to system organ class (SOC) and preferred term (PT) using the Medical Dictionary for Regulatory Activities (MedDRA) version 24.0. Severity was collected using the Common Terminology Criteria for AEs (CTCAE) version 5.0 Toxicity Grade. Events with missing severity were summarized as Grade 3. TEAEs summarized by severity counted each participant once for the maximum severity within each SOC and PT within each in-house treatment period and overall. TEAEs marked with a relationship to study treatment as definitely, probable, possible, or missing were considered as related TEAEs. Events with missing relationship to study treatment were summarized as related. The number and percentage of participants with TEAEs were summarized by MedDRA-coded SOCs and PTs.
# [2] = pharmacokinetics in CD-1 mice, single SC injection; conditions: 1 mg/kg SC
# Description: Blood was kept on ice until centrifuged at 4600 rpm for five minutes at 4° C. Plasma was stored at −80° C. until analysis. Compounds were extracted from plasma and quantified against a standard curve using an AB Sciex 7500+LC-MS/MS system (FIG. 5).
# [3] = test system: lean C57BL/6J, GLP-1R+/+ and GLP-1R-/- mice; assay: single intracerebroventricular injection: food consumption and body weight; conditions: lean mice, single ICV 0.025 nmol, up to 72 h
# [4] = test system: C57BL/6J-DIO mice; assay: intraperitoneal glucose tolerance test in DIO mice; type: in vivo, mouse; conditions: for efficacy in ipGTT eight hours post-drug administration (in words): C57BL/6J-DIO mice, single dose 2.4 nmol/kg
# [5] = biological target: human GLP-1R (Homo sapiens, UniProt P43220); assay: receptor internalization (Nano-Glo HiBiT), human GLP-1R; type: cell-based; set-up: host or cells: HEK293
# Sequence of human GLP-1R (P43220 24-463): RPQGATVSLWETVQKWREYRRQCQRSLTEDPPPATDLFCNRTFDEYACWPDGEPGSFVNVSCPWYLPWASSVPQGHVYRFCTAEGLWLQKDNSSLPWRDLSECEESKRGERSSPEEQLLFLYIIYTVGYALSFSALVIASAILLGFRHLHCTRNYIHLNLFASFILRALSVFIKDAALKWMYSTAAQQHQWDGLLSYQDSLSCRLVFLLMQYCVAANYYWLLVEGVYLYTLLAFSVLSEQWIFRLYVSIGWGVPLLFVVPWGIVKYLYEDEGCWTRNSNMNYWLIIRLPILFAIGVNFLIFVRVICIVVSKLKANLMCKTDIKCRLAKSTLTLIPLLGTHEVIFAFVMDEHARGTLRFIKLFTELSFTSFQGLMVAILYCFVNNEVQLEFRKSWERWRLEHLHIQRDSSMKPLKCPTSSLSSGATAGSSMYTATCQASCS
# Description: GLP-1R and GIPR internalization were measured using Promega's Nano-Glo® HiBit extracellular detection system (Promega Corporation; Madison, WI). Hek293 cells were transiently transfected with HiBiT-tagged hGLP-1R or hGIPR plasmids (Promega Corporation; Madison, WI). Cells were lifted using the TrypLE express enzyme (ThermoFisher Scientific) and plated at 80,000-100,000 cells per well in 96 well plates. Cells were then treated with Nano-Glo HibiT extracellular buffer containing LgBiT protein (1:100), and the Nano-Glo HiBiT extracellular substrate (1:50).
# GLP-1R and GIPR internalization was measured using Promega's Nano-Glo® HiBit extracellular detection system (Promega Corporation; Madison, WI). HEK293 cells were transiently transfected with low quantities of HiBiT-tagged hGLP-1R or hGIPR plasmids (Promega Corporation; Madison, WI). The next day, cells were lifted using TrypLE express enzyme (ThermoFisher Scientific) and plated at 80,000-100,000 cells per well in 96 well plates.
compound,measurement,setting,value
"CCCCCCCCCCCCCCCC(=O)N[C@@H](CCC(=O)NCCCC[C@H](NC(=O)[C@H](C)NC(=O)[C@H](C)NC(=O)[C@H](CCC(N)=O)NC(=O)CNC(=O)[C@H](CCC(=O)O)NC(=O)[C@H](CC(C)C)NC(=O)[C@H](Cc1ccc(O)cc1)NC(=O)[C@H](CO)NC(=O)[C@H](CO)NC(=O)[C@@H](NC(=O)[C@H](CC(=O)O)NC(=O)[C@H](CO)NC(=O)[C@@H](NC(=O)[C@H](Cc1ccccc1)NC(=O)[C@@H](NC(=O)CNC(=O)[C@H](CCC(=O)O)NC(=O)[C@H](C)NC(=O)[C@@H](N)Cc1cnc[nH]1)[C@@H](C)O)[C@@H](C)O)C(C)C)C(=O)N[C@@H](CCC(=O)O)C(=O)N[C@@H](Cc1ccccc1)C(=O)N[C@H](C(=O)N[C@@H](C)C(=O)N[C@@H](Cc1c[nH]c2ccccc12)C(=O)N[C@@H](CC(C)C)C(=O)N[C@H](C(=O)N[C@@H](CCCNC(=N)N)C(=O)NCC(=O)N[C@@H](CCCNC(=N)N)C(=O)NCC(=O)O)C(C)C)[C@@H](C)CC)C(=O)O [liraglutide, Liraglutide, reference compound]",AEs of Special Interest (AESI) Total,[1],4 (40.0) n (%)
same,Abdominal pain,[1],0 n (%)
same,Anaemia,[1],0 n (%)
same,"Any AESIs, Grade 2",[1],1 (25.0%) n (%)
same,Arthralgia,[1],0 n (%)
same,At Least 1 Study Drug Related TEAE,[1],3 (30.0) n (%)
same,At Least 1 TEAE,[1],7 (70.0) n (%)
same,Back pain,[1],0 n (%)
same,Blood and lymphatic system disorders,[1],0 n (%)
same,Chills,[1],0 n (%)
same,Coagulation test abnormal,[1],0 n (%)
same,Constipation,[1],0 n (%)
same,Decreased appetite,[1],0 n (%)
same,Diarrhoea,[1],0 n (%)
same,Dizziness,[1],0 n (%)
same,Eructation,[1],0 n (%)
same,Gastroesophageal reflux disease,[1],0 n (%)
same,General disorders and administration site conditions,[1],0 n (%)
same,Headache,[1],0 n (%)
same,Hypoglycemia,[1],3 (30.0) n (%)
same,Infections and infestations,[1],0 n (%)
same,Injection Site Reaction,[1],0 n (%)
same,Injection site haemorrhage,[1],0 n (%)
same,Injection site reactions,[1],0 n (%)
same,Investigations,[1],0 n (%)
same,Musculoskeletal and connective tissue disorders,[1],0 n (%)
same,Nervous system disorders,[1],0 n (%)
same,Peripheral swelling,[1],0 n (%)
same,Rash,[1],0 n (%)
same,SAEs,[1],0 n (%)
same,Skin hyperpigmentation,[1],0 n (%)
same,TEAEs leading to drug discontinuation,[1],0 n (%)
same,Treatment Discontinuation,[1],0 n (%)
same,Urinary tract infection,[1],0 n (%)
same,Vomiting,[1],0 n (%)
same,participants with Grade 1 hypoglycemia events,[1],3 participants
same,times more exposure than CT-859,[2],6 times
"Exendin-4 [Ex-4, reference compound]",food consumption and body weight after ICV injection (in words),[3],started to lose efficacy by 48 hours
same,food consumption and body weight after ICV injection (in words),[3]; listed as exendin-4,significant reduction of cumulative food consumption
same,efficacy in ipGTT eight hours post-drug administration (in words),[4],no longer effective
"FG-EGT-FTS-DLS-KQM-EEE-AVR-LFI-EWL-LAG-GPS-SGA-PPPS-NH2 (FGEGTFTSDLSKQMEEEAVRLFIEWLLAGGPSSGAPPPS-NH2) [Ex-Phe1, reference compound]",signalling profile at GLP-1R (in words),[5],cAMP-biased agonist that prevents receptor internalization
same,food consumption and body weight after ICV injection (in words),[3],remained efficacious
same,food consumption and body weight after ICV injection (in words),[3]; listed as exendin-Phe1,greater reduction of food intake and much more prolonged body weight reduction as compared to exendin-4
same,glucose tolerance and body weight vs exendin-4 (in words),[4],improves glucose tolerance and decreases body weight more than exendin-4
same,efficacy in ipGTT eight hours post-drug administration (in words),[4],remained efficacious
